From paper PMC7377239, “Cardiovascular Effects of Polychlorinated Biphenyls and Their Major Metabolites” (Environmental Health Perspectives, 2020)
Structures can show the parent of a compound that is named as a salt. Where two headings read alike, the source gives them in different places.

System: iCell cardiomyocytes (human iPSC-derived cardiomyocytes)
Test: Intracellular Ca2+ flux / beating parameters in iCell cardiomyocytes (FLIPR tetra), 90 min or 24 h
Format: cell-based
Conditions: Homo sapiens, Cardiomyocyte, 0.00 µM = 100.00; for activity at 0.1 µM: 0.10 µM
Summary of the method: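 PODs were defined as the concentration crossing one SD of the vehicle-control means (0.5% DMSO) on four-parameter logistic fits of Ca2+ trace metrics (peak height, frequency, peak-spacing CV, decay/rise ratio). Traces came from 100 s, 8 Hz FLIPR reads at 37 °C on calcium-dye-loaded iCell cardiomyocytes. Before reading, cells were treated for 90 min or 24 h from 5× chemical plates spanning 0.05–500 µM, in triplicate.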

[1] = 1.5 h, read-out: cm.amp.avg.90min
[2] = 1.5 h, read-out: cm.amp.cv.90min
[3] = 1.5 h, read-out: cm.decay.rise.90min
[4] = 1.5 h, read-out: cm.spacing.cv.90min
[5] = 24 h, read-out: cm.amp.avg.24hrs
[6] = 24 h, read-out: cm.amp.cv.24hrs
[7] = 24 h, read-out: cm.decay.rise.24hrs
[8] = 24 h, read-out: cm.spacing.cv.24hrs

O=S(=O)(O)Oc1ccc(-c2ccc(Cl)cc2)cc1 [4'-yl PCB 3 sulfate]
activity at 0.01 µM [1]: 91%
activity at 0.01 µM [2]: 97%
activity at 0.01 µM (1.5 h, read-out: cm.bpm.90min): 100%
activity at 0.01 µM [3]: 100%
activity at 0.01 µM [4]: 138%
activity at 0.1 µM [1]: 100%
activity at 0.1 µM [2]: 92%
activity at 0.1 µM (1.5 h, read-out: cm.bpm.90min): 100%
activity at 0.1 µM [3]: 98.1%
activity at 0.1 µM [4]: 107%
activity at 1 µM [1]: 98%
activity at 1 µM [2]: 75.3%
activity at 1 µM (1.5 h, read-out: cm.bpm.90min): 100%
activity at 1 µM [3]: 95.6%
activity at 1 µM [4]: 90.9%
activity at 10 µM [1]: 93%
activity at 10 µM [2]: 105%
activity at 10 µM (1.5 h, read-out: cm.bpm.90min): 104%
activity at 10 µM [3]: 97.7%
activity at 10 µM [4]: 104%
activity at 100 µM [1]: 0%
activity at 100 µM [2]: 0%
activity at 100 µM (1.5 h, read-out: cm.bpm.90min): 0%
activity at 100 µM [3]: 0%
activity at 100 µM [4]: 0%
activity at 0.01 µM [5]: 114%
activity at 0.01 µM [6]: 86.7%
activity at 0.01 µM (24 h, read-out: cm.bpm.24hrs): 102%
activity at 0.01 µM [7]: 89.3%
activity at 0.01 µM [8]: 96.8%
activity at 0.1 µM [5]: 46.3%
activity at 0.1 µM [6]: 44.4%
activity at 0.1 µM (24 h, read-out: cm.bpm.24hrs): 47.7%
activity at 0.1 µM [7]: 52.8%
activity at 0.1 µM [8]: 48.2%
activity at 1 µM [5]: 68%
activity at 1 µM [6]: 33.8%
activity at 1 µM (24 h, read-out: cm.bpm.24hrs): 46.8%
activity at 1 µM [7]: 51.1%
activity at 1 µM [8]: 55.8%
activity at 10 µM [5]: 89.3%
activity at 10 µM [6]: 96.4%
activity at 10 µM (24 h, read-out: cm.bpm.24hrs): 101%
activity at 10 µM [7]: 105%
activity at 10 µM [8]: 108%
activity at 100 µM [5]: 112%
activity at 100 µM [6]: 68.8%
activity at 100 µM (24 h, read-out: cm.bpm.24hrs): 79.2%
activity at 100 µM [7]: 113%
activity at 100 µM [8]: 103%

O=C1C=CC(=O)C(c2ccc(Cl)cc2)=C1 [4-Cl-BQ, 2-(4-Chlorophenyl)benzo-2,5-quinone]
activity at 0.01 µM [1]: 91.7%
activity at 0.01 µM [2]: 113%
activity at 0.01 µM (1.5 h, read-out: cm.bpm.90min): 103%
activity at 0.01 µM [3]: 99.5%
activity at 0.01 µM [4]: 135%
activity at 0.1 µM [1]: 92.1%
activity at 0.1 µM [2]: 88.6%
activity at 0.1 µM (1.5 h, read-out: cm.bpm.90min): 100%
activity at 0.1 µM [3]: 96.6%
activity at 0.1 µM [4]: 99.9%
activity at 1 µM [1]: 92.1%
activity at 1 µM [2]: 105%
activity at 1 µM (1.5 h, read-out: cm.bpm.90min): 95.3%
activity at 1 µM [3]: 107%
activity at 1 µM [4]: 104%
activity at 10 µM [1]: 101%
activity at 10 µM [2]: 118%
activity at 10 µM (1.5 h, read-out: cm.bpm.90min): 124%
activity at 10 µM [3]: 104%
activity at 10 µM [4]: 225%
activity at 100 µM [1]: 0%
activity at 100 µM [2]: 0%
activity at 100 µM (1.5 h, read-out: cm.bpm.90min): 0%
activity at 100 µM [3]: 0%
activity at 100 µM [4]: 0%
activity at 0.01 µM [5]: 112%
activity at 0.01 µM [6]: 125%
activity at 0.01 µM (24 h, read-out: cm.bpm.24hrs): 101%
activity at 0.01 µM [7]: 85.3%
activity at 0.01 µM [8]: 104%
activity at 0.1 µM [5]: 97.3%
activity at 0.1 µM [6]: 130%
activity at 0.1 µM (24 h, read-out: cm.bpm.24hrs): 100%
activity at 0.1 µM [7]: 96.8%
activity at 0.1 µM [8]: 92.5%
activity at 1 µM [5]: 105%
activity at 1 µM [6]: 96.8%
activity at 1 µM (24 h, read-out: cm.bpm.24hrs): 93.6%
activity at 1 µM [7]: 103%
activity at 1 µM [8]: 98.4%
activity at 10 µM [5]: 45.5%
activity at 10 µM [6]: 56.6%
activity at 10 µM (24 h, read-out: cm.bpm.24hrs): 64.9%
activity at 10 µM [7]: 72.1%
activity at 10 µM [8]: 63.9%
activity at 100 µM [5]: 0%
activity at 100 µM [6]: 0%
activity at 100 µM (24 h, read-out: cm.bpm.24hrs): 0%
activity at 100 µM [7]: 0%
activity at 100 µM [8]: 0%
